Columns and labels:
[1] = test system: HAP1 MTAP-deleted cell line; assay: SDMA in-cell western assay, HAP1 MTAP-deleted; format: cell-based; conditions: for IC50: Homo sapiens, HAP1, SDMA in-cell western, HAP1 MTAP-deleted, read-out: HAP 1 MTAP deleted IC50; for MTAP intact/deleted ratio: IC50 ratio HAP1 MTAP-intact / HAP1 MTAP-deleted, SDMA in-cell western
How it was run: (§1)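 IC50 values come from SDMA signal quantified by in-cell western in two HAP1 lines, one with native MTAP levels and one lacking MTAP.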

[2] = test system: HAP1 MTAP-intact cell line; assay: SDMA in-cell western assay, HAP1 MTAP-intact; format: cell-based; conditions: Homo sapiens, HAP1, SDMA in-cell western, HAP1 MTAP-intact; read-out: MTAP HAP1 intact IC50
How it was run: as §1

PRMT5 [3] = biological target: T1, PRMT5 (Homo sapiens, UniProt O14744); assay: PRMT5 biochemical IC50 assay with SAM as cofactor; conditions: PRMT5, SAM as cofactor; read-out: SAM IC50
T1 construct: purchased Viva (custom protein)

PRMT5 [4] = biological target: T1, PRMT5; assay: PRMT5 biochemical IC50 assay with MTA as cofactor; conditions: PRMT5, MTA as cofactor; read-out: MTA IC50
[5] = test system: HAP1 MTAP-deleted cell line; assay: Viability assay, MTAP-deleted cell line; format: cell-based; conditions: Homo sapiens, HAP1, viability, HAP1 MTAP-deleted cell line; read-out: HAP1 MTAP deleted viability
Excerpt: Table 1 additionally indicates IC50 values in a viability assay for the MTAP-deleted cell line (column 10), indicating the effect of treatment with compound on cell survival.

PRMT5 [6] = biological target: T1, PRMT5; assay: PRMT5 biochemical IC50 assay with no cofactor; conditions: PRMT5, no cofactor; read-out: No Cofactor/ rel IC50
Excerpt: Table 1 indicates IC50 values (μM) against PRMT5 for exemplary compounds in the presence of SAM as cofactor, with no cofactor, and with MTA as cofactor, respectively (columns 4-6). […] Ki values can be calculated from the IC50 values as described in the Examples section. As detailed in the Examples section, for the assay performed in the presence of SAM, IC50=Ki×1.5 (Ki=IC50/1.5).

T1 sequence (O14744 whole entry): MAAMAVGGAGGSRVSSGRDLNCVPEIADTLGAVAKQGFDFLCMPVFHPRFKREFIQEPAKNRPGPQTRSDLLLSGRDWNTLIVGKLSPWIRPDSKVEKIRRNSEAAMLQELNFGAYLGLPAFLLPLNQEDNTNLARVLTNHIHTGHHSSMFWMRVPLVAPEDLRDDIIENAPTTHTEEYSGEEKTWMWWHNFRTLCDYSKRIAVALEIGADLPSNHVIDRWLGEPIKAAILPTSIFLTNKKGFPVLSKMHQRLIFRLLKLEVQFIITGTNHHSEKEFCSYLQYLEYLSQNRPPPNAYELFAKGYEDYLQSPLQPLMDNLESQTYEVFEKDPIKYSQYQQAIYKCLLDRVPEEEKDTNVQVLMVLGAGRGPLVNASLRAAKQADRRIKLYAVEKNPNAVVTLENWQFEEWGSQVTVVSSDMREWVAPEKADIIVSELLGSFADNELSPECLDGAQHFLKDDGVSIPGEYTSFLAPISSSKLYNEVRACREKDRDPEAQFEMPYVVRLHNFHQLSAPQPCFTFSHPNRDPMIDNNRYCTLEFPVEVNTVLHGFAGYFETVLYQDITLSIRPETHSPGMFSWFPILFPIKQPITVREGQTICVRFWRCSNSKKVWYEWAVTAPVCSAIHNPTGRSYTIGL
T1 sequence (Q9BQA1 whole entry partner): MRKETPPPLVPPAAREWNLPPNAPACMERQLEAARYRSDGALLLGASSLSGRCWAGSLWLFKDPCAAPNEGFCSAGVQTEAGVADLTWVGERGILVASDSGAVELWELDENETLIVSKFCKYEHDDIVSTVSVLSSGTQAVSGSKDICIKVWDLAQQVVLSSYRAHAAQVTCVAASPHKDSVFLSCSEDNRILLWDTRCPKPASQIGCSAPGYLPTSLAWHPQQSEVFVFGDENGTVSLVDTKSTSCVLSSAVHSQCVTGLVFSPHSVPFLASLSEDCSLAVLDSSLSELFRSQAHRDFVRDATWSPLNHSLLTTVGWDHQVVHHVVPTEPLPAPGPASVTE

With `C[C@H]1CC[C@H](c2ccc3sc(C4CCN(C)CC4)nc3c2)N(C(=O)C(=O)Nc2cncc(C(N)=O)c2)C1` (single isomer, unassigned) [Compound 1255] the IC50 [1] was < 0.1 µM, the “MTAP intact/deleted ratio” value [1] was “A (an IC50 ratio greater than or equal to 10 fold)” and the IC50 [2] was < 0.1 µM. For the same compound, the IC50 (PRMT5 [3]) was 0.05 to 0.5 µM, the IC50 (PRMT5 [4]) was < 0.05 µM and the IC50 [5] was < 1 µM. For the same compound, the IC50 (PRMT5 [6]) was < 0.05 µM.

For `C[C@H]1CCC(c2ccc3sc(C4CCOCC4)nc3c2)N(C(=O)C(=O)Nc2cnc(N)c(C3CC3)c2)C1` (single isomer, unassigned) [Compound 1258], the IC50 [1] was < 0.1 µM, the “MTAP intact/deleted ratio” value [1] was “A (an IC50 ratio greater than or equal to 10 fold)” and the IC50 [2] was 0.1 to 1 µM. The IC50 (PRMT5 [3]) was 0.05 to 0.5 µM, the IC50 (PRMT5 [4]) was < 0.05 µM and the IC50 [5] was < 1 µM. For the same compound, the IC50 (PRMT5 [6]) was < 0.05 µM.

With `CCc1cc(NC(=O)C(=O)N2C[C@@H](C)CC[C@@H]2c2ccc(N3CCN(C)[C@H](C)C3)nc2)cnc1N` (single isomer, unassigned) [Compound 1263] the IC50 [1] was < 0.1 µM, the “MTAP intact/deleted ratio” value [1] was “A (an IC50 ratio greater than or equal to 10 fold)” and the IC50 [2] was 0.1 to 1 µM. The IC50 (PRMT5 [3]) was 0.05 to 0.5 µM, the IC50 (PRMT5 [4]) was < 0.05 µM and the IC50 [5] was < 1 µM. The IC50 (PRMT5 [6]) was > 0.5 µM.

In the case of `CCc1cc(NC(=O)C(=O)N2C[C@H](C)CC[C@H]2c2ccc(N3CCC4(CCCN(C)C4)CC3)cc2)cnc1N` (single isomer, unassigned) [Compound 1269], the IC50 [1] is reported as 0.1 to 1 µM, the IC50 [2] is reported as > 1 µM and the IC50 (PRMT5 [3]) is reported as > 0.5 µM. The IC50 (PRMT5 [4]) was 0.05 to 0.5 µM, the IC50 [5] was 1 to 10 µM and the IC50 (PRMT5 [6]) was > 0.5 µM.

In the case of `CCc1cc(NC(=O)C(=O)N2C[C@@H](C)CC[C@@H]2c2ccc3nn([C@@H]4CCCN(C)C4)cc3c2)cnc1N` (single isomer, unassigned) [Compound 1270], the IC50 [1] is reported as < 0.1 µM, the “MTAP intact/deleted ratio” value [1] is reported as “A (an IC50 ratio greater than or equal to 10 fold)” and the IC50 [2] is reported as 0.1 to 1 µM. The IC50 (PRMT5 [3]) was 0.05 to 0.5 µM, the IC50 (PRMT5 [4]) was < 0.05 µM and the IC50 [5] was < 1 µM. It also gave an IC50 (PRMT5 [6]) of 0.05 to 0.5 µM.

`CCc1cc(NC(=O)C(=O)N2C[C@@H](C)CC[C@@H]2c2ccc3nn([C@H]4CCCN(C)C4)cc3c2)cnc1N` (single isomer, unassigned) [Compound 1271] was tested, and the IC50 [1] was < 0.1 µM, the “MTAP intact/deleted ratio” value [1] was “B (an IC50 ratio greater than or equal to 3 fold but lower than 10 fold)” and the IC50 [2] was < 0.1 µM. The IC50 (PRMT5 [3]) was 0.05 to 0.5 µM, the IC50 (PRMT5 [4]) was < 0.05 µM and the IC50 [5] was < 1 µM. The IC50 (PRMT5 [6]) was < 0.05 µM.

`CCc1cc(NC(=O)C(=O)N2C[C@@H](C)CC[C@@H]2c2cccc(C[C@H]3CCCCN3C)c2)cnc1N` (single isomer, unassigned) [Compound 1273] was tested, and the IC50 [1] was < 0.1 µM, the “MTAP intact/deleted ratio” value [1] was “A (an IC50 ratio greater than or equal to 10 fold)” and the IC50 [2] was 0.1 to 1 µM. The IC50 (PRMT5 [3]) was 0.05 to 0.5 µM, the IC50 (PRMT5 [4]) was < 0.05 µM and the IC50 [5] was < 1 µM. For the same compound, the IC50 (PRMT5 [6]) was < 0.05 µM.

With `Cc1cc(NC(=O)C(=O)N2C[C@@H](C)[C@H](CC(C)C)C[C@@H]2c2ccc3scnc3c2)cnc1N` (single isomer, unassigned) [Compound 1284] the IC50 [1] was > 1 µM, the IC50 [2] was > 1 µM and the IC50 (PRMT5 [3]) was > 0.5 µM. For the same compound, the IC50 (PRMT5 [4]) was > 0.5 µM, the IC50 [5] was > 10 µM and the IC50 (PRMT5 [6]) was > 0.5 µM.

In the case of `CCc1cc(NC(=O)C(=O)N2C[C@@H](C)[C@@H](OC)C[C@@H]2c2ccc3scnc3c2)cnc1N` (single isomer, unassigned) [Compound 1286], the IC50 [1] is reported as < 0.1 µM, the “MTAP intact/deleted ratio” value [1] is reported as “A (an IC50 ratio greater than or equal to 10 fold)” and the IC50 [2] is reported as 0.1 to 1 µM. The IC50 (PRMT5 [3]) was 0.05 to 0.5 µM, the IC50 (PRMT5 [4]) was < 0.05 µM and the IC50 [5] was < 1 µM. For the same compound, the IC50 (PRMT5 [6]) was < 0.05 µM.

With `CCc1cc(NC(=O)C(=O)N2C[C@@H](C)CC[C@@H]2c2ccc(N3CCN(C)[C@@H](C)C3)nc2)cnc1N` (single isomer, unassigned) [Compound 1289] the IC50 [1] was < 0.1 µM, the “MTAP intact/deleted ratio” value [1] was “A (an IC50 ratio greater than or equal to 10 fold)” and the IC50 [2] was 0.1 to 1 µM. The IC50 (PRMT5 [3]) was 0.05 to 0.5 µM, the IC50 (PRMT5 [4]) was < 0.05 µM and the IC50 [5] was < 1 µM. For the same compound, the IC50 (PRMT5 [6]) was < 0.05 µM.

With `Cc1cc(NC(=O)C(=O)N2C[C@H](C)CC[C@H]2c2cccc(C3CCN(C)CC3)c2)cnc1N` (single isomer, unassigned) [Compound 1291] the IC50 [1] was 0.1 to 1 µM, the IC50 [2] was > 1 µM and the IC50 (PRMT5 [3]) was > 0.5 µM. The IC50 (PRMT5 [4]) was > 0.5 µM, the IC50 [5] was > 10 µM and the IC50 (PRMT5 [6]) was > 0.5 µM.

With `Cc1cc(NC(=O)C(=O)N2C[C@@H](C)[C@@H](OC(C)C)C[C@@H]2c2ccccc2)cnc1N` (single isomer, unassigned) [Compound 1302] the IC50 [1] was > 1 µM, the IC50 [2] was > 1 µM and the IC50 (PRMT5 [3]) was > 0.5 µM. For the same compound, the IC50 (PRMT5 [4]) was > 0.5 µM, the IC50 [5] was > 10 µM and the IC50 (PRMT5 [6]) was > 0.5 µM.

With `C[C@@H]1CN(C(=O)C(=O)Nc2cnc(N)c(C3CC3)c2)[C@@H](c2ccc3scnc3c2)CC1(F)F` (single isomer, unassigned) [Compound 1307] the IC50 [1] was < 0.1 µM, the “MTAP intact/deleted ratio” value [1] was “A (an IC50 ratio greater than or equal to 10 fold)” and the IC50 [2] was > 1 µM. The IC50 (PRMT5 [3]) was > 0.5 µM, the IC50 (PRMT5 [4]) was 0.05 to 0.5 µM and the IC50 [5] was < 1 µM. It also gave an IC50 (PRMT5 [6]) of 0.05 to 0.5 µM.

In the case of `CCc1cc(NC(=O)C(=O)N2C[C@@H](C)CC[C@@H]2c2ccc3sc([C@@H]4CCN(C)C4)nc3c2)cnc1N` (single isomer, unassigned) [Compound 1308], the IC50 [1] is reported as < 0.1 µM, the “MTAP intact/deleted ratio” value [1] is reported as “A (an IC50 ratio greater than or equal to 10 fold)” and the IC50 [2] is reported as < 0.1 µM. The IC50 (PRMT5 [3]) was 0.05 to 0.5 µM, the IC50 (PRMT5 [4]) was < 0.05 µM and the IC50 [5] was < 1 µM. For the same compound, the IC50 (PRMT5 [6]) was < 0.05 µM.

With `Cc1cc(NC(=O)C(=O)N2C[C@@H](C)CC[C@@H]2c2ccc3sc(-c4cccnc4)nc3c2)cnc1N` (single isomer, unassigned) [Compound 1310] the IC50 [1] was < 0.1 µM, the “MTAP intact/deleted ratio” value [1] was “A (an IC50 ratio greater than or equal to 10 fold)” and the IC50 [2] was < 0.1 µM. The IC50 (PRMT5 [3]) was 0.05 to 0.5 µM, the IC50 (PRMT5 [4]) was < 0.05 µM and the IC50 [5] was < 1 µM. For the same compound, the IC50 (PRMT5 [6]) was < 0.05 µM.

With `CCc1cc(NC(=O)C(=O)N2C[C@@H](C)CC[C@@H]2c2ccc3sc([C@H]4CCN(C)C4)nc3c2)cnc1N` (single isomer, unassigned) [Compound 1311] the IC50 [1] was < 0.1 µM, the “MTAP intact/deleted ratio” value [1] was “A (an IC50 ratio greater than or equal to 10 fold)” and the IC50 [2] was < 0.1 µM. The IC50 (PRMT5 [3]) was < 0.05 µM, the IC50 (PRMT5 [4]) was < 0.05 µM and the IC50 [5] was < 1 µM. The IC50 (PRMT5 [6]) was < 0.05 µM.

For `C[C@H]1CC[C@H](c2ccc3sc(C4CCN(C)CC4)nc3c2)N(C(=O)C(=O)Nc2cnc(N)c([C@H]3CCOC3)c2)C1` (single isomer, unassigned) [Compound 1312], the IC50 [1] was < 0.1 µM, the IC50 [2] was > 1 µM and the IC50 (PRMT5 [3]) was < 0.05 µM. For the same compound, the IC50 (PRMT5 [4]) was < 0.05 µM, the IC50 [5] was < 1 µM and the IC50 (PRMT5 [6]) was < 0.05 µM.

With `Cc1nc2cc([C@H]3CC[C@H](C)CN3C(=O)C(=O)Nc3cnc(N)c(C4CC4)c3)ccc2s1` (single isomer, unassigned) [Compound 1313] the IC50 [1] was < 0.1 µM, the “MTAP intact/deleted ratio” value [1] was “A (an IC50 ratio greater than or equal to 10 fold)” and the IC50 [2] was 0.1 to 1 µM. The IC50 (PRMT5 [3]) was 0.05 to 0.5 µM, the IC50 (PRMT5 [4]) was < 0.05 µM and the IC50 [5] was < 1 µM. For the same compound, the IC50 (PRMT5 [6]) was < 0.05 µM.

With `CCc1cc(NC(=O)C(=O)N2C[C@@H](C)CC[C@@H]2c2ccc3sc([C@@H](C)N(C)C)nc3c2)cnc1N` (single isomer, unassigned) [Compound 1316] the IC50 [1] was < 0.1 µM, the “MTAP intact/deleted ratio” value [1] was “A (an IC50 ratio greater than or equal to 10 fold)” and the IC50 [2] was < 0.1 µM. The IC50 (PRMT5 [3]) was 0.05 to 0.5 µM, the IC50 (PRMT5 [4]) was < 0.05 µM and the IC50 [5] was < 1 µM. The IC50 (PRMT5 [6]) was < 0.05 µM.
